Measurements taken from patent publication US9249128B2 (priority 2010, dated 2016).
pIC50: −log10 of the molar value.

How the values were obtained:
[1] = test system: serine hydrolase activities detected in the brain proteome; assay: Competitive ABPP-MudPIT of brain membrane proteomes from treated mice; format: in vivo, mouse; settings: 20 mg/kg, oral gavage, 4 hr; off-target is carboxylesterase ES1
Experimental: Competitive ABPP-MudPIT experiments were performed as previously described (Nomura et al., 2010). Briefly, 1 mg of proteome was labeled with 5 μM FP-biotin, followed by solubilization with 1% Triton X-100, denaturation by SDS and heating, avidin precipitation of labeled proteins, and on-bead tryptic digest. Tryptic peptides were then loaded on to a biphasic (strong cation exchange/reverse phase) capillary column and analyzed by two-dimensional liquid chromatography (2D-LC) separation in combination with tandem mass spectrometry using an Agilent 1100 LC system coupled with a ThermoFisher LTQ linear ion trap mass spectrometer. Spectral counts are reported as the average of three samples with the standard error of the mean (SEM).
(§1) JW480 was administered by oral gavage (in PEG300, 4 μL/g mouse) or intraperitoneally (in 18:1:1 v/v/v solution of saline:ethanol:emulphor, 10 μL/g). After the indicated amount of time, mice were anesthetized with isoflurane and killed by decapitation. Tissues were removed and then flash frozen in liquid N2. Tissues were stored at −80° C. until use. Animal experiments were conducted in accordance with the guidelines of the institutional Animal Care and Use Committee of The Scripps Research Institute.

KIAA1363 [2] = biological target: T1, KIAA1363 (Homo sapiens, UniProt Q6PIU2); assay: Gel-based competitive ABPP in PC3 cell proteomes, in vitro treatment; format: biochemical; design: PC3 cancer cells, which have high endogenous KIAA1363 levels; endogenous in cells; host or cells: PC3
T1 sequence (Q6PIU2 1-408): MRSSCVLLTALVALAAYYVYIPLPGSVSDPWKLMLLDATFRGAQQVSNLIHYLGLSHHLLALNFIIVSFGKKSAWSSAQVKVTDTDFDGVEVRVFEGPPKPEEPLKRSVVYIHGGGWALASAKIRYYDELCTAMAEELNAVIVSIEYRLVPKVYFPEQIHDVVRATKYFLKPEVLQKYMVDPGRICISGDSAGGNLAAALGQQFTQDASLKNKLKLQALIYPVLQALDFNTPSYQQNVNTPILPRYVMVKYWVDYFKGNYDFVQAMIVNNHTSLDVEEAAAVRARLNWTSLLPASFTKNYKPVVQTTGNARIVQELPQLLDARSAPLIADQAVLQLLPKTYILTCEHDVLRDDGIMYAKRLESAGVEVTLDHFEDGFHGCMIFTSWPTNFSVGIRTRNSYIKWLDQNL
Experimental: (§2) Inhibitors were dissolved in DMSO and diluted into media or buffer prior to cell or proteome treatment, respectively. For in vitro treatment, final DMSO concentration was 4%. For in situ treatments of cells for ABPP, lipid measurements, migration, cell-survival, and invasion assays, 2×10^6 cells were seeded in 6 cm dishes (˜100% confluency) 24 h prior to inhibitor pre-treatment (in DMSO at 0.1% final concentration) in serum-free media (3 mL) for the designated time before harvesting cells for ABPP or lipid measurements or before the initiation of migration, cell-survival, and invasion assays.
(§3) For ABPP experiments, cell lysate and tissue proteomes were treated with 1 μM FP-rhodamine for 30 min at room temperature (50 μL total reaction volume) as described previously (Nomura et al., 2010). Reactions were quenched with one volume of standard 4×SDS/PAGE loading buffer (reducing), separated by SDS/PAGE (10% acrylamide), and visualized in-gel with a Hitachi FMBio IIe flatbed fluorescence scanner (MiraiBio). Inhibitors were preincubated prior (30 min or 4 h at 37° C. in vitro or in situ, respectively) to the addition of FP-rhodamine.

LNCaP cells = assay: Cell survival assay in LNCaP cells; format: cell-based, human; settings: 1 μM, 48 h in situ treatment; cells express low levels of KIAA1363
Experimental: as §2
Cell migration, cell survival, and invasion studies were performed as previously described (Nomura et al., 2010). Briefly, migration assays were performed in Transwell chambers (Corning) with 8 μm pore-sized membranes coated with 10 μg/mL collagen at 37° C. for LNCaP (24 h), PC3 (4 h) and DU145 cells (24 h), respectively. Cell survival assays were performed using the Cell Proliferation Reagent WST-1 (Roche) Invasion assays were conducted using the BD Matrigel Invasion Chambers per the manufacturer's protocol. Inhibitors were preincubated for the stated duration before seeding cells into migration, cell-survival, or invasion chambers. Prior to seeding the cells in these chambers, cells were serum-starved for 4 h. Inhibitors were also present during the migration, cell-survival, and invasion assays.

brain KIAA1363 = biological target: T2, brain KIAA1363 (Mus musculus, UniProt Q8BLF1); assay: Competitive ABPP of brain proteomes from inhibitor-treated mice; format: in vivo
T2 construct: ABPP analysis of KIAA1363 activity in mouse brain membrane proteome; from tissue; host or cells: mouse brain (membrane fraction)
T2 sequence (Q8BLF1 1-408): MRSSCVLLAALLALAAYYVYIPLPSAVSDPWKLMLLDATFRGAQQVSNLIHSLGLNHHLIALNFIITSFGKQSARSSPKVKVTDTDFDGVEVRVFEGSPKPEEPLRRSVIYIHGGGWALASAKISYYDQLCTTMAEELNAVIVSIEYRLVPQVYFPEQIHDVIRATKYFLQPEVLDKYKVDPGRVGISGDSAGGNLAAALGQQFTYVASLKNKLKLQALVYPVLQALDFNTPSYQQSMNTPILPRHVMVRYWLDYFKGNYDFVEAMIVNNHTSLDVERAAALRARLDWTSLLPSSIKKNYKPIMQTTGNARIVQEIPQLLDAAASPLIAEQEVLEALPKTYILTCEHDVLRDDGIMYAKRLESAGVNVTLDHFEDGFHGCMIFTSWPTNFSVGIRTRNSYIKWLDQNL
Experimental: Tissues were Dounce-homogenized in PBS, pH 7.4, followed by a low-speed spin (1,400 g, 5 min) to remove debris. The supernatant was then subjected to centrifugation (100,000×g, 45 min) to provide the cytosolic fraction in the supernatant and the unsoluble fraction as a pellet. The pellet was washed and resuspended in PBS buffer by sonication. Total protein concentration in each fraction was determined using a protein assay kit (Bio-Rad). Samples were stored at −80° C. until use.
as §3, §1

KIAA1363 [3] = biological target: T1, KIAA1363; assay: 2-acetyl MAGE hydrolytic activity assay in cancer cells treated in situ; format: cell-based; design: PC3 cancer cells, which have high endogenous KIAA1363 levels; endogenous in cells; host or cells: PC3 (2-acetyl MAGE assay also DU145 and SKOV3); settings: JW480 1 μM, 48 h; PC3 and DU145 cells
Experimental: Cells were pretreated with KIAA1363 inhibitors in situ (for 4 hr in serum-free F-12K media before harvesting cells by scraping) or in vitro (for 30 min at 37° C. in PBS) before addition of 2-acetyl MAGE (100 μM) to cell lysates at room temperature for 30 min in a volume of 200 μL. Reactions were quenched with 600 μL 2:1 chloroform:methanol and 10 nmol of C12:0 MAGE internal standard was added. The organic layer was extracted and 30 μL injected into an Agilent 1100-MSD LC-MS. LC-MS settings were as previously described (Chiang et al., 2006). Product levels (C16:0 MAGE) were quantified in relation to the internal standard. Specific activity was determined during the linear phase of enzymatic reactions (i.e., less than 20% substrate utilized).
Cell lysates (20 μg) in Tris buffer were then incubated with lipid (100 mM, e.g., 2-acetyl MAGE for KIAA1363 activity) at room temperature for 30 min in a volume of 200 ml. Reactions were quenched with 600 ml 2:1 chloroform:methanol and 10 nmol of C12:0 MAGE internal standard was added. […] Product levels (C16:0 MAGE for KIAA1363 activity) were quantified in relation to internal standard levels and standard curves generated between varying lipid concentration versus constant internal standard levels. Specific activity was determined during the linear phase of enzymatic reactions (i.e., less than 20% substrate utilized)

`CC(C)c1ccccc1OC(=O)NCCc1ccc2ccccc2c1` [JW480, 2-isopropylphenyl (2-(naphthalen-2-yl)ethyl)carbamate] was tested, and the “Off-targets among ~30 brain serine hydrolase activities (ABPP-MudPIT)” value [1] was “only a single off-target was observed”, the “Selectivity for KIAA1363 by gel-based competitive ABPP” value (KIAA1363 [2]; PC3 cells, also DU145 and LNCaP cells) was “excellent selectivity” and the pIC50 (KIAA1363 [2]; in vitro treatment) was 7.92. The “Survival of LNCaP cells” value (LNCaP cells) was “does not affect”, the “Selectivity for KIAA1363 in brain proteomes from treated mice (gel-based ABPP)” value (brain KIAA1363; 1-80 mg/kg, i.p. or oral, 4 hr) was “excellent selectivity” and the “Dose required to completely inactivate brain KIAA1363 in SCID mice” value (brain KIAA1363; immunedeficient SCID mouse strain, oral) was 80 mg/kg. The “Dose giving complete inhibition of brain KIAA1363, i.p.” value (brain KIAA1363; mice, i.p., 4 hr) was 5 mg/kg, the “Dose giving complete inhibition of brain KIAA1363, oral” value (brain KIAA1363; normal mice, oral, 4 hr) was 20 mg/kg and the “Duration of KIAA1363 inhibition in vivo” value (brain KIAA1363; single administration 20 mg/kg, oral) was “up to 24 hr”. For the same compound, the “2-acetyl MAGE hydrolase activity” value (KIAA1363 [3]) was “completely blocked”.
